In patent US9314464B2, “Compounds and compositions as protein kinase inhibitors” (Novartis AG, priority 2009, dated 2016):

How the values were obtained:
B-Raf V600E = B-Raf V600E (Homo sapiens (Human), UniProt P15056, V600E); assay: B-Raf V600E/Mek Amplified Luminescence Proximity Homogeneous Assay (B-Raf V600E biochemical); settings: read-out: BRAF V600E biochemical IC50
Procedure: The plate was incubated for 60 minutes at room temperature.
The B-Raf kinase activity reaction was started by the addition of 10 μl per well of 2×ATP (10 μM) diluted in assay buffer. After 3 hours, the reactions were stopped with the addition of 10 μl of stop reagent (60 mM EDTA, 0.01% Tween20). Phosphorylated product was measured using a rabbit anti-p-MEK (Cell Signaling, #9121) antibody and the Alpha Screen IgG (ProteinA) detection Kit (PerkinElmer #6760617R), by the addition of 30 μl to the well of a mixture of the antibody (1:2000 dilution) and detection beads (1:1000 dilution of both beads) in bead buffer (50 mM Tris, pH 7.5, 0.01% Tween20). The additions were carried out under dark conditions to protect the detection beads from light. A lid was placed on top of the plate and the plate was incubated for 1 hour at room temperature. The luminescence was read on a PerkinElmer Envision instrument. The concentration of each compound for 50% inhibition (IC50) was calculated by non-linear regression using XL Fit data analysis software.

[1] = Liver Microsomal Clearance Assay, human; type: in vitro ADME; settings: extraction ratio, human liver microsomes
Procedure: (§1) Liver Microsomal Clearance Assay
(§2) The in vitro microsomal clearance assay is designed to assess potential risks associated with hepatic metabolic stability of compounds. The test compound (1 μM) was incubated with liver microsomes (0.5 mg/mL) from different species (mouse, rat, monkey, dog and human) and NADPH (1 mM) in 100 mM potassium phosphate buffer at 37° C. At specific reaction time points (0, 5, 10 and 30 minutes), reaction aliquots were removed and reactions were terminated by addition of ice cold acetonitrile containing mass spectrometry internal standard. The samples were centrifuged and the supernatants were analyzed by LC-MS/MS. In vitro metabolic half-life (t1/2, min) and intrinsic clearance (CLint, μL/min/mg) are based on the rate and extent of metabolism of the test compound as determined by the disappearance of the parent compound from the reaction mixture. These values may be scaled to predict hepatic metabolic clearance rate (CLh, mL/min/kg) and extraction ratio (ER, expressed as a ratio of the predicted hepatic metabolic clearance to hepatic blood flow in that species). In general, compounds with high predicted CLint or ER in vitro are considered to be at high risk for exposure-limiting metabolism in vivo.

[2] = Liver Microsomal Clearance Assay, mouse; type: in vitro ADME; settings: extraction ratio, mouse liver microsomes
Procedure: as §1, §2

[3] = In Vivo Pharmacokinetics Assay in mouse; settings: for bioavailability at 24 h: 10 mg/kg, PO/IV 10/2 mg/kg; for clearance at 24 h: IV 2 mg/kg
Procedure: (§3) Full pharmacokinetics study: Male Balb/c mice (n=3, body weights 22-25 g) or male Wistar rats (n=3, body weights 250-300 g) were administered the test compound intravenously via the lateral tail vein or orally via gavage. The formulation was typically a 2.5 mg/mL solution of the compound in 75% PEG300 and 25% D5W. Six blood samples of 50 μL each were collected serially for 24 h after dosing. The blood samples were centrifuged to separate the plasma. Plasma samples were analyzed and quantified by LC-MS/MS.
as §3, with “Rapid” for “Full”, “intravenously (IV)” for “intravenously”, “orally (PO)” for “orally”, “Blood” for “The blood”, “and plasma separated and pooled across” for “to separate”, “three animals at each time point per dose route.” for “plasma.”
For both full and rapid pharmacokinetics studies, the following parameters were calculated by non-compartmental regression analysis using Winnonlin 5.0 software (Pharsight, Mountain View, Calif., USA): plasma clearance (Cl), plasma maximum concentration (Cmax), plasma area-under-the-concentration-time-curve (AUC0-inf), and percent oral bioavailability (F %).

A375 cells = assay: In Vivo Efficacy - 14 Day A375 Mouse Xenograft Model
Procedure: A375 cells were grown in sterile conditions in a 37° C. incubator with 5% CO2 for two to four weeks. The cells were cultured in RPMI-1640 media supplemented with 10% FBS. Cells were passaged twice weekly with 0.05% Trypsin/EDTA. On the day of implant, cells were harvested in HBSS (Hank's Balanced Salt Solution). Female Nu/Nu mice (Charles River, 10-11 weeks at start of study) were implanted with 5×10^6 A375 cells/mouse in 50% matrigel, 0.2 mL SQ right flank on day 1. At 19 days post-implant, mice were randomized into 6 groups (9 mice per group), with an average tumor volume of 215 mm^3 and average body weight of 24 g. Test compound was dosed BID for 14 days commencing on day 19 using a dosing volume 0.2 mL per dose, with compound formulated at the appropriate concentration to attain the desired dose level. Clinical observations were made daily. Tumor volume and body weight were measured twice weekly.
Tumor volume results were assessed at 14 days post-first dose. Partial response is defined as having tumor growth 20-50% of control tumor growth. Stable disease is defined as having final tumor volume within +/−20% of initial tumor size. Partial regression is defined as having final tumor volume<80% of initial tumor volume.

SW620 cells = assay: SW620 Cell Viability Assay (Cell Titer Glo); type: cell-based; settings: FIG. 1, compound alone
Procedure: The present invention also includes combinations of the BRaf inhibitors disclosed in this invention with other agents. In particular, the present invention provides for combinations with MEK1/2 inhibitors. FIG. 1 illustrates that the addition of a MEK small molecule inhibitor can reverse the induced ERK signaling, cell growth and transformation caused by a Raf small molecule inhibitor.
SW620 cells were seeded in 1640 RPMI+10% FBS at a density of 1500 cells per 96-well in black walled, clear bottom tissue culture treated plates. Test compounds were serially diluted in DMSO then added to the cells (final DMSO concentration of 0.1%) and incubated at 37° C. and 5% CO2 for 4 days. To measure cell viability, cell plates were brought to room temperature, culture media was removed, and 200 μl of Cell Titer-Glo reagent (Promega, kit components mixed as per the manufacturer's protocol then diluted 1:2 with growth media) was added to each well. Plates were shaken for 5 minutes, then incubated at room temperature for 5 minutes, and the luminescence was measured (Trilux, Perkin Elmer).

[4] = male, Balb/c, plasma, PO 10 mg/kg

Sequence of B-Raf V600E (P15056 whole entry V600E): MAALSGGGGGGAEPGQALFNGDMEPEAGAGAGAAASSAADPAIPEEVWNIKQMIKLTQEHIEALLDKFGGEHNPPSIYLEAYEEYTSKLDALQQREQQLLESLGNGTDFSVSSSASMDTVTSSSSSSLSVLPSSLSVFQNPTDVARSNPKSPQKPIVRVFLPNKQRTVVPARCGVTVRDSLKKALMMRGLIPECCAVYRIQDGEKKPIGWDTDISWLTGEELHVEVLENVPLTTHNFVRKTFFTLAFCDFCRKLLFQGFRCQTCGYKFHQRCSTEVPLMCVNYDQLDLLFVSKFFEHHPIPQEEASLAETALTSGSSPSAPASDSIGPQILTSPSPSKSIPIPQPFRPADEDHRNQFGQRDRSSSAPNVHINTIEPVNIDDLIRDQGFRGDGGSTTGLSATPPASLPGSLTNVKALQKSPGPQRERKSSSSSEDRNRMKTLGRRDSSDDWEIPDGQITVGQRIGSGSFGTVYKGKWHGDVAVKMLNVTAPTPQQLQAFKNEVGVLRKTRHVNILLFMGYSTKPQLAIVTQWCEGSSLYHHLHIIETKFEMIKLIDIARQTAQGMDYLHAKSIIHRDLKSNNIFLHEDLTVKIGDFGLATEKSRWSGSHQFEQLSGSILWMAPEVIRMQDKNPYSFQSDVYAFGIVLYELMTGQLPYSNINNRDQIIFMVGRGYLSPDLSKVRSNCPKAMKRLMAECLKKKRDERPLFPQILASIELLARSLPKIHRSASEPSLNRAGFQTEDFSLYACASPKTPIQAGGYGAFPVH

| IC50 (B-Raf V600E) | ER Human [1] | ER Mouse [2] | bioavailability at 24 h ([3]; male, Balb/c, plasma) | clearance at 24 h ([3]; male, Balb/c, plasma) | AUC at 24 h [3, 4] | Cmax at 24 h [3, 4] | PO AUC ([3]; PO 10 mg/kg) | AUC ([3]; male, Balb/c, plasma, oral dose of 10 mg/kg) | SMILES | Tumor volume result (A375 cells; 1 mg/kg bid×14, 14 days post-first dose) | Tumor volume result (A375 cells; 3 mg/kg bid×14, 14 days post-first dose) | Tumor volume result (A375 cells; 10 mg/kg bid×14, 14 days post-first dose) | Tumor volume result (A375 cells; 20 mg/kg bid×14, 14 days post-first dose) | cellular proliferation in Cell Titer Glo assay (SW620 cells) |
| --- | --- | --- | --- | --- | --- | --- | --- | --- | --- | --- | --- | --- | --- | --- |
| 0.7 nM | 0.65 | 0.91 | 8 ± 7% | 99 ± 13 mL/min/kg | 0.24 ± 0.21 µM·h | 0.15 ± 0.07 µM | – | – | CCCS(=O)(=O)Nc1ccc(F)c(-c2nn(C(C)C)cc2-c2ccnc(NC[C@H](C)NC(=O)OC)n2)c1F [Compound 7, Methyl N-[(2S)-1-[(4-{3-[2,6-difluoro-3-(propane-1-sulfonamido)phenyl]-1-(propan-2-yl)-1H-pyrazol-4-yl}pyrimidin-2-yl)amino]propan-2-yl]carbamate] | – | – | – | – | – |
| – | <0.21 | 0.48 | 43 ± 6% | 4.3 ± 0.4 mL/min/kg | – | 27 ± 4 µM | 30 ± 4 µM·h | 30 ± 4 µM·h | COC(=O)N[C@@H](C)CNc1nccc(-c2cn(C(C)C)nc2-c2cc(Cl)cc(NS(C)(=O)=O)c2F)n1 [Compound 9, Methyl N-[(2S)-1-({4-[3-(5-chloro-2-fluoro-3-methanesulfonamidophenyl)-1-(propan-2-yl)-1H-pyrazol-4-yl]pyrimidin-2-yl}amino)propan-2-yl]carbamate] | partial response (Partial response is defined as having tumor growth 20-50% of control tumor growth) | stable disease (Stable disease is defined as having final tumor volume within +/−20% of initial tumor size) | partial regression (Partial regression is defined as having final tumor volume<80% of initial tumor volume) | partial regression (Partial regression is defined as having final tumor volume<80% of initial tumor volume) | induction in cellular proliferation |
